These results are taken from publication PMC12657457 (Frontiers in Pharmacology, 2025).

pIC50, pKi: −log10 of the molar value. Counter-ions that a name gives are not always drawn. Like-named read-outs stand apart in the source and are kept apart here.

One data set concerns the target T1, human BChE (Homo sapiens, UniProt P06276).
T1 construct: pooled human plasma (source of BChE) were used as enzyme sources; from tissue; host or cells: pooled human plasma from patients with mild-to-moderate AD
As to the kind of experiment: IC50 determination against BChE in pooled human plasma (Ellman). It is filed as biochemical. As for the experimental part:
(§1) The stock solution was prepared at 10 mM in DMSO. Acetylthiocholine iodide (ATC), butyrylthiocholine iodide (BTC), and 5,5′-dithiobis-(2-nitrobenzoic acid) (DTNB) were also purchased from Sigma-Aldrich. Recombinant human AChE (Cat. No. C1682) and pooled human plasma (source of BChE) were used as enzyme sources. The pooled human plasma was prepared as described before ([Vijayaraghavan et al., 2013]). Briefly, pooled plasma samples were prepared by combining equal volumes from a large cohort of patients clinically diagnosed with mild-to-moderate AD. All samples were collected prior to the initiation of any cholinesterase inhibitor treatment. An equal volume of glycerol was then added to the pooled plasma, thoroughly mixed, and aliquoted into small tubes. These aliquots were stored at -20 °C until used in the assay. Each aliquot was used only once to avoid any interference due to freeze-thaw cycles. All other reagents were of analytical grade.
(§2) Substrate concentrations were varied in a two-fold serial dilution: BTC (5 mM–[…]) for BChE and ATC (0.5 mM–[…]) for AChE. Each well received 20 µL of compound or vehicle, 20 µL of substrate, 20 µL of enzyme/DTNB master mix (for all of them 4x working solution in order to reach final concentration), and 20 µL of buffer. Absorbance at 412 nm was measured every 2 min for 15–20 min.

The target of the next data set is T2, human plasma BChE (Homo sapiens, UniProt P06276).
T2 construct: pooled human plasma (source of BChE) were used as enzyme sources; from tissue; host or cells: pooled human plasma from patients with mild-to-moderate AD
As to the kind of experiment: Ex vivo enzyme-inhibition kinetic analysis (Ki and inhibition mode). It is filed as biochemical. The settings on record: for Inhibition mode (BChE): best-fit nonlinear regression model. As for the experimental part: as §1, §2
To further elucidate the mechanism of inhibition, inhibition constant (Kᵢ) values and inhibition modes were determined using nonlinear regression models in GraphPad Prism 10. Multiple models were tested, including competitive, noncompetitive, uncompetitive, and mixed inhibition. The optimal model for each compound was selected based on residual analysis and the Akaike Information Criterion (AIC), ensuring robust statistical support. In cases of mixed inhibition, the α parameter was used to characterize the relative affinity of the inhibitor for the enzyme-substrate complex versus the free enzyme.

The target in another data set is T3, Recombinant human AChE (Homo sapiens, UniProt P22303).
T3 construct: purchased Sigma-Aldrich C1682
As to the kind of experiment: Single-concentration screening, modified Ellman's assay (AChE). It is filed as biochemical. The following applies: 0.5 mM ATC. As for the experimental part: as §1, with “Propranolol hydrochloride and diltiazem hydrochloride were obtained from Sigma-Aldrich (St. Louis, MO, United States). The stock” for “The stock”
Cholinesterase activity was measured using a modified Ellman’s colorimetric method adapted for high-throughput screening ([Kumar et al., 2017]; [2020]; [Darreh-Shori et al., 2024]). Assays were conducted in 384-well microplates. Briefly, 20 µL of buffer was initially added to all wells. Subsequently, 20 µL of enzyme solution was added to designated wells, while 20 µL of buffer without enzyme was added to the negative control wells. […] The plate reader (Tecan Infinite M1000) was configured for a 384-well transparent plate in absorbance mode at 412 nm, with kinetic reading taken over 10 min at 1-min intervals. Following incubation, 20 µL of Master Mix Buffer (MMB) cocktail was added to each well using a multichannel pipette, and the plate reading was initiated inmediately. […] Upon completion of the reading, the data file was saved, enzyme activity rates were extracted, and the data were analyzed. Enzyme activity was calculated from the slope of the linear portion of the absorbance-time curve.
For orientation: Ellman's reagent forms a yellow product with free thiols.

Another data set addresses T4, plasma-derived BChE (Homo sapiens, UniProt P06276).
T4 construct: pooled human plasma (source of BChE) were used as enzyme sources; from tissue; host or cells: pooled human plasma from patients with mild-to-moderate AD
As to the kind of experiment: Single-concentration screening, modified Ellman's assay (BChE). It is filed as biochemical. The following applies: read-out: BChE inhibition relative to vehicle control. As for the experimental part: Propranolol hydrochloride and diltiazem hydrochloride were obtained from Sigma-Aldrich (St. Louis, MO, United States). The stock solution was prepared at 10 mM in DMSO. Acetylthiocholine iodide (ATC), butyrylthiocholine iodide (BTC), and 5,5′-dithiobis-(2-nitrobenzoic acid) (DTNB) were also purchased from Sigma-Aldrich. Recombinant human AChE (Cat. No. C1682) and pooled human plasma (source of BChE) were used as enzyme sources. The pooled human plasma was prepared as described before ([Vijayaraghavan et al., 2013]). Briefly, pooled plasma samples were prepared by combining equal volumes from a large cohort of patients clinically diagnosed with mild-to-moderate AD. […]
Cholinesterase activity was measured using a modified Ellman’s colorimetric method adapted for high-throughput screening ([Kumar et al., 2017]; [2020]; [Darreh-Shori et al., 2024]). […] The plate reader (Tecan Infinite M1000) was configured for a 384-well transparent plate in absorbance mode at 412 nm, with kinetic reading taken over 10 min at 1-min intervals. Following incubation, 20 µL of Master Mix Buffer (MMB) cocktail was added to each well using a multichannel pipette, and the plate reading was initiated inmediately. […] Upon completion of the reading, the data file was saved, enzyme activity rates were extracted, and the data were analyzed. […]

For data set [1] the following is noted: physiologically relevant concentration; ref Cruickshank and Neil-Dwyer, 1985; cited from earlier work.
A further data set deals with BChE. The following applies: at approximately 0.59 µM in plasma and 10 µM in brain tissue; ref Cruickshank and Neil-Dwyer, 1985; cited from earlier work.

T3 sequence (P22303 32-614): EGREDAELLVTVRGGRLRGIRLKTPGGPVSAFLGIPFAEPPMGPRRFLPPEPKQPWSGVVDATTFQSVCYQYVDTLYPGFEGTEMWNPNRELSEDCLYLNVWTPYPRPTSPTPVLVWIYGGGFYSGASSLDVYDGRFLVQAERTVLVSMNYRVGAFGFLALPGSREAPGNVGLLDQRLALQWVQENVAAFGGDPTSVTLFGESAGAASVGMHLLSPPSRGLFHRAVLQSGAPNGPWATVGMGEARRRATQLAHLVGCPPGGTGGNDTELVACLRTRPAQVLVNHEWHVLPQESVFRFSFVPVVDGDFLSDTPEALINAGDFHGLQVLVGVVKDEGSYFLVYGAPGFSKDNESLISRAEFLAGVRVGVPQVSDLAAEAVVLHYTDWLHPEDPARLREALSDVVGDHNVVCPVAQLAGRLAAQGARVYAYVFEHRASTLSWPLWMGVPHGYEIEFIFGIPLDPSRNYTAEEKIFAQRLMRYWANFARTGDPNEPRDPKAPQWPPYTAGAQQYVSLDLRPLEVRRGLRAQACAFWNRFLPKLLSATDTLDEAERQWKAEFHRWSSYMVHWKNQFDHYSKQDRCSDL
T1 sequence (P06276 29-602): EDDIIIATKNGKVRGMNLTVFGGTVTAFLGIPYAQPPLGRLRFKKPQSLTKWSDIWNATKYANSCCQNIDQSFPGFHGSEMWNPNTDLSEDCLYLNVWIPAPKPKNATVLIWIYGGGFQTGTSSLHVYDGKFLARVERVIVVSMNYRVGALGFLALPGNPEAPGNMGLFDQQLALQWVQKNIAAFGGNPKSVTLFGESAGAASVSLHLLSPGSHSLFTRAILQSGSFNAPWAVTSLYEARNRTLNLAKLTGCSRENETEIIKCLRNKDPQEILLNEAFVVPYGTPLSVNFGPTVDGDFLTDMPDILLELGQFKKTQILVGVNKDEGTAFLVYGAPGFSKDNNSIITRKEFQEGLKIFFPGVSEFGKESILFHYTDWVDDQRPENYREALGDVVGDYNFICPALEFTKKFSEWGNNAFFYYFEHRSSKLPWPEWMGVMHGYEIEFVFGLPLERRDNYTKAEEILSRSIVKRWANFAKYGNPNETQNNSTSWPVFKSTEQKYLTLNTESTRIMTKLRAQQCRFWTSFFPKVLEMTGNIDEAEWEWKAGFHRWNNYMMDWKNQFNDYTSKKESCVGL
T2 sequence (P06276 29-602): as above
T4 sequence (P06276 29-602): as above

The pIC50 is −log10 of the IC50, conventionally taken in molar units. As usually defined, the pKi is the negative decadic logarithm of the Ki, by convention in mol/L. Low readings indicate a large Ki, high ones a small Ki. As for `COc1ccc([C@@H]2Sc3ccccc3N(CCN(C)C)C(=O)[C@@H]2OC(C)=O)cc1` [Diltiazem, diltiazem hydrochloride], the pIC50 at human BChE was 3.82. For the same molecule, the pKi at human plasma BChE is 5.64. For the same molecule, the “Inhibition mode (BChE)” value is “competitive inhibitor” on human plasma BChE and “competitive inhibition” on human plasma BChE (listed as diltiazem). In addition, the inhibition at 100 µM at Recombinant human AChE (single concentration 100 µM, read-out: AChE inhibition relative to vehicle control) was 2%; at plasma-derived BChE (single concentration 100 µM, 5 mM BTC) it was over 80%.
Molecule `CCN(CC)C(C)CN1c2ccccc2Sc2ccccc21` (stereo not shown) [Ethopropazine] gave a pIC50 against human BChE of 5.55. The “Inhibition mode (BChE)” value on human plasma BChE is “Mixed-competitive”; on human plasma BChE (listed as ethopropazine) it was “mixed competitor”. Moreover, the “AChE inhibition relative to vehicle control” value at Recombinant human AChE (single concentration 100 µM) is reported as “no inhibition”.
In the case of `CNC(=O)Oc1ccc2c(c1)[C@]1(C)CCN(C)[C@@H]1N2C` [Physostigmine], the “Inhibition mode (BChE)” value at human plasma BChE is “Competitive”; on human plasma BChE (listed as physostigmine) it was “competitive inhibition”.
With `CC(C)NCC(O)COc1cccc2ccccc12` (stereo not shown) [Propranolol, Propranolol hydrochloride], in data set [1], the Concentration in plasma entry is recorded as “approximately 0.59 µM” and the “Concentration in the brain tissue” value is about 10 µM. Also, the “Reduction of BChE activity” value in the data set with BChE was “approximately 50%”. For the same molecule, the pIC50 at human BChE (5 mM BTC as substrate, plasma BChE, read-out: IC50 (BChE)) is 4.25. At human plasma BChE, the pKi is 6.72 and the “Inhibition mode (BChE)” value is given as “competitive inhibitor”. Further, the “Inhibition mode (BChE)” value on human plasma BChE (listed as propranolol) is “competitive inhibition”. Besides, the “Concentration that reduced BChE activity to half of its baseline level” value on human plasma BChE (substrate concentration range of 0.08 mM–0.62 mM) was 0.19 µM. For the same molecule, on Recombinant human AChE (read-out: AChE inhibition relative to vehicle control, single concentration 100 µM), the inhibition at 100 µM was found to be 18%. The inhibition at 100 µM at plasma-derived BChE was over 80%.
